Where two headings read alike, the source gives them in different places. Each block holds one molecule with its values, some of them ahead of it.
Legend:
[1] = log P by reversed-phase HPLC (EEC Directive 79/831 Annex V.A8); format: physicochemical; conditions: for chromatographic logP: reversed-phase C18 HPLC column
From the text: NMR data and log P values: log P (HCOOH)=log P[a] log P (neutral)=log P[b]
^[a] […] Called log P (HCOOH) in the table.
^[b] […] Called log P (neutral) in the table.

Tetranychus urticae = Tetranychus urticae spray test, OP-resistant (TETRUR); format: in vivo; conditions: 500 g/ha, bean leaf discs, after 6 days
Procedure: Tetranychus urticae—spray test, OP-resistant (TETRUR)
(§1) • Solvent: 78.0 parts by weight of acetone • 1.5 parts by weight of dimethylformamide • Emulsifier: 0.5 part by weight of alkylaryl polyglycol ether
After 6 days, the efficacy in % is determined. 100% means that all the spider mites have been killed; 0% means that no spider mites have been killed.

Myzus persicae = Myzus persicae spray test (MYZUPE); format: in vivo; conditions: Chinese cabbage leaf discs, after 6 days
Procedure: Myzus persicae—spray test (MYZUPE)
• Solvent: 78 parts by weight of acetone • 1.5 parts by weight of dimethylformamide • Emulsifier: 0.5 part by weight of alkylaryl polyglycol ether
After 6 days, the efficacy in % is determined. 100% means that all the aphids have been killed; 0% means that no aphids have been killed.

Aphis gossypii = Aphis gossypii spray test; format: in vivo; conditions: cotton plants, after 6 days
Procedure: Aphis gossypii—spray test
(§2) • Solvent: 7 parts by weight of dimethylformamide • Emulsifier: alkylaryl polyglycol ether
(§3) To produce further test concentrations, the preparation is diluted with emulsifier-containing water. If the addition of ammonium salts or/and penetrants is required, these are each added in a concentration of 1000 ppm to the formulation solution.
After 6 days, the kill in % is determined. 100% means that all the aphids have been killed; 0% means that no aphids have been killed.

Nilaparvata lugens [2] = experiment: Nilaparvata lugens spray test (solvent dimethylformamide, 7 days); format: in vivo; conditions: rice plants, after 7 days
Procedure: (§4) Nilaparvata lugens—spray test
If the addition of ammonium salts or/and penetrants is required, these are each added in a concentration of 1000 ppm to the formulation solution.
After 7 days, the efficacy in % is determined.

Haemonchus contortus = Haemonchus contortus test (HAEMCO); format: in vivo; conditions: after 5 days
From the text: Haemonchus contortus-test ([…]) • Solvent: dimethyl sulfoxide […] Vessels containing the active compound preparation of the desired concentration are populated with about 40 larvae of the red stomach worm (Haemonchus contortus).

Cooperia curticei = Cooperia curticei test (COOPCU); format: in vivo; conditions: after 5 days
Procedure: Cooperia curticei test (COOPCU)
• Solvent: dimethyl sulfoxide
To produce a suitable preparation of active compound, 10 mg of active compound are mixed with 0.5 ml of dimethyl sulfoxide and the concentrate is diluted with “Ringer's solution” to the desired concentration.
Vessels containing the active compound preparation of the desired concentration are populated with about 40 nematode larvae (Cooperia curticei).
After 5 days, the kill in % is determined. 100% means that all the larvae have been killed; 0% means that none of the larvae have been killed.

Bemisia tabaci = Bemisia tabaci spray test; format: in vivo; conditions: cotton plants, after 8 days
Procedure: Bemisia Tabaci—Spray Test
as §2, §3
After 8 days, the efficacy in % is determined. 100% means that all the whiteflies have been killed; 0% means that none of the whiteflies have been killed.

Phaedon cochleariae = Phaedon cochleariae spray test (PHAECO); format: in vivo; conditions: 500 g/ha, Chinese cabbage leaf discs, after 7 days
Procedure: Phaedon cochleariae—spray test (PHAECO)
as §1
After 7 days, the efficacy in % is determined. 100% means that all the beetle larvae have been killed; 0% means that no beetle larvae have been killed.

[3] = tested on: Nippostrongylus brasiliensis; conditions: 10 ppm, adult worms, 37° C., OD at 405 nm versus negative control
Spodoptera frugiperda = Spodoptera frugiperda spray test (SPODFR); format: in vivo; conditions: 500 g/ha, maize leaf discs, after 7 days
Procedure: Spodoptera frugiperda—spray test (SPODFR)
• Solvent: 78.0 parts by weight of acetone • 1.5 parts by weight of dimethylformamide • Emulsifier: 0.5 parts by weight of alkylaryl polyglycol ether
After 7 days, the efficacy in % is determined. 100% means that all the caterpillars have been killed; 0% means that no caterpillars have been killed.

Meloidogyne incognita = conditions: 20 ppm, lettuce, after 14 days
Procedure: Meloidogvne incognita test (MELGIN)
• Solvent: 125.0 parts by weight of acetone
The lettuce seeds germinate and the plants develop. The galls develop on the roots.
After 14 days, the nematicidal efficacy in % is determined by the formation of galls.

Boophilus microplus = Boophilus microplus test (BOOPMI injection); format: in vivo; conditions: 20 μg/animal, injection into the abdomen, after 7 days
Procedure: Boophilus microplus test (BOOPMI injection) • Solvent: dimethyl sulfoxide To produce a suitable preparation of active compound, 10 mg of active compound are mixed with 0.5 ml of solvent and the concentrate is diluted with solvent to the desired concentration. The active compound solution is injected into the abdomen (Boophilus microplus), and the animals are transferred into dishes and stored in a climate-controlled room. Efficacy is assessed after 7 days by laying of fertile eggs. Eggs which are not visibly fertile are stored in a climate-controlled cabinet until the larvae hatch after about 42 days.

Nilaparvata lugens [4] = conditions: 500 g/ha, rice plants, after 4 days
Procedure: as §4
• Solvent: 52.5 parts by weight of acetone • 7 parts by weight of dimethylformamide • Emulsifier: alkylaryl polyglycol ether
To produce further test concentrations, the preparation is diluted with emulsifier-containing water.
After 4 days, the efficacy in % is determined. 100% means that all of the planthoppers have been killed; 0% means that none of the planthoppers have been killed.

Nephotettix cincticeps = Nephotettix cincticeps test (NEPHCI); format: in vivo; conditions: 100 ppm, rice plants, after 14 days
Procedure: Nephotettix cincticeps test (NEPHCI)
In the event that addition of ammonium salts or/and penetrants (rapeseed oil methyl ester) is required, these are each pipetted in a concentration of 1000 ppm after the finished formulation solution has been diluted.
After 14 days, the kill in % is determined. 100% means that all leafhoppers have been killed; 0% means that none of the leafhoppers have been killed.

[5] = acidic range, pH 2.7, 0.1% aqueous formic acid/acetonitrile, read-out: logP [a] = log P (HCOOH)
[6] = neutral range, pH 7.8, aqueous ammonium hydrogencarbonate/acetonitrile, read-out: logP [b] = log P (neutral)
[7] = acidic range, pH 2.7, 0.1% aqueous formic acid/acetonitrile
[8] = neutral range, pH 7.8, aqueous ammonium hydrogencarbonate/acetonitrile

Structure (SMILES): CCc1cnccc1-c1cnc2cc3c(cc2n1)OC(F)(F)O3 [Example I-1, 6-(3-Ethylpyridin-4-yl)-2,2-difluoro[1,3]dioxolo[4,5-g]quinoxaline]
chromatographic logP [1, 5]: 2.34
chromatographic logP [1, 6]: 3.23
efficacy (spider mites killed) (Tetranychus urticae): 100%
efficacy (aphids killed) (Myzus persicae; 500 g/ha): 90%
efficacy (kill of aphids) (Aphis gossypii; 20 ppm): 85%
efficacy (planthoppers killed) (Nilaparvata lugens [2]; 20 ppm): 100%

Structure (SMILES): Cc1cnccc1-c1cnc2cc3c(cc2n1)OC(F)(F)O3 [Example I-32]
logP [a] = log P (HCOOH) ([1]; pH 2.7): 1.99
logP [b] = log P (neutral) ([1]; pH 7.8): 2.85
efficacy (kill of larvae) (Haemonchus contortus; 20 ppm): 80%
efficacy (kill of larvae) (Cooperia curticei; 20 ppm): 80%
efficacy (aphids killed) (Myzus persicae; 500 g/ha): 90%
efficacy (kill of aphids) (Aphis gossypii; 100 ppm): 90%

Structure (SMILES): Cc1cnccc1-c1cnc2ccc(C(F)(F)F)cc2n1 [Example I-30]
logP [a] = log P (HCOOH) ([1]; pH 2.7): 2.12
logP [b] = log P (neutral) ([1]; pH 7.8): 2.89
efficacy (kill of aphids) (Aphis gossypii; 100 ppm): 100%
efficacy (whiteflies killed) (Bemisia tabaci; 100 ppm): 100%
efficacy (planthoppers killed) (Nilaparvata lugens [2]; 100 ppm): 80%

Structure (SMILES): FC(F)(F)c1ccc2ncc(-c3ccncc3)nc2c1 [Example I-9]
logP [a] = log P (HCOOH) [1, 7]: 2.13
logP [b] = log P (neutral) [1, 8]: 2.75
efficacy (kill of larvae) (Haemonchus contortus; 100 ppm): 100%
efficacy (kill of larvae) (Cooperia curticei; 100 ppm): 100%
efficacy (beetle larvae killed) (Phaedon cochleariae): 100%
efficacy (aphids killed) (Myzus persicae; 500 g/ha): 90%
efficacy (kill of aphids) (Aphis gossypii; 100 ppm): 85%
efficacy (category of AChE inhibition) [3]: 100% (100% (>84-100% inhibition))

Structure (SMILES): FC1(F)Oc2cc3ncc(-c4ccncc4)nc3cc2O1 [Example I-74]
logP [a] = log P (HCOOH) [1, 7]: 1.98
nematicidal efficacy (formation of galls) (Meloidogyne incognita): 90%

Structure (SMILES): FC1(F)Oc2cc3nc(Cl)c(-c4ccc(Cl)cc4)nc3cc2O1 [Example I-4, 6-Chloro-7-(4-chlorophenyl)-2,2-difluoro[1,3]dioxolo[4,5-g]quinoxaline]
chromatographic logP [1, 5]: 5.27
efficacy (kill of larvae) (Haemonchus contortus; 20 ppm): 80%

Structure (SMILES): FC(F)(F)c1ccc2nc(-c3cccnc3)cnc2c1 [Example I-8]
logP [a] = log P (HCOOH) [1, 7]: 2.46
efficacy (kill of larvae) (Haemonchus contortus; 100 ppm): 100%
efficacy (kill of larvae) (Cooperia curticei; 100 ppm): 100%
efficacy (category of AChE inhibition) [3]: 84% (84% (60-84% inhibition))

Structure (SMILES): FC(F)(F)c1ccc2nc(-c3ccncc3)cnc2c1 [Example I-7]
logP [a] = log P (HCOOH) [1, 7]: 2.17
logP [b] = log P (neutral) [1, 8]: 2.75
efficacy (laying of fertile eggs) (Boophilus microplus): 80%
nematicidal efficacy (formation of galls) (Meloidogyne incognita): 90%
efficacy (beetle larvae killed) (Phaedon cochleariae): 100%
efficacy (aphids killed) (Myzus persicae; 500 g/ha): 90%
efficacy (whiteflies killed) (Bemisia tabaci; 100 ppm): 100%
efficacy (planthoppers killed) (Nilaparvata lugens [4]): 90%

Structure (SMILES): Clc1ccc2nc(-c3cccnc3)cnc2c1 [Example I-40]
logP [a] = log P (HCOOH) [1, 7]: 2.01
logP [b] = log P (neutral) [1, 8]: 2.43
efficacy (kill of larvae) (Cooperia curticei; 20 ppm): 90%

More lines, main results first:

logP [a] = log P (HCOOH) ([1]; pH 2.7): 2.59
Structure (SMILES): COc1cnccc1-c1cnc2cc(C(F)(F)F)ccc2n1 [Example I-11]
efficacy (aphids killed) (Myzus persicae; 750 g/ha): 90%
efficacy (kill of aphids) (Aphis gossypii; 100 ppm): 100%
efficacy (whiteflies killed) (Bemisia tabaci; 100 ppm): 100%
efficacy (planthoppers killed) (Nilaparvata lugens [2]; 100 ppm): 90%

logP [a] = log P (HCOOH) ([1]; pH 2.7): 2.81
logP [b] = log P (neutral) ([1]; pH 7.8): 2.82
Structure (SMILES): CCS(=O)(=O)c1ccccc1-c1cnc2cc(Cl)ccc2n1 [Example I-29]
efficacy (caterpillars killed) (Spodoptera frugiperda): 83%

logP [a] = log P (HCOOH) ([1]; pH 2.7): 4.79
Structure (SMILES): CCSc1ccccc1-c1cnc2ccc(C(F)(F)F)cc2n1 [Example I-36]
efficacy (laying of fertile eggs) (Boophilus microplus): 90%
efficacy (beetle larvae killed) (Phaedon cochleariae): 83%
efficacy (spider mites killed) (Tetranychus urticae): 90%
efficacy (aphids killed) (Myzus persicae; 500 g/ha): 90%

logP [a] = log P (HCOOH) ([1]; pH 2.7): 4.73
Structure (SMILES): CCSc1ccccc1-c1cnc2cc3c(cc2n1)OC(F)(F)O3 [Example I-34]
efficacy (beetle larvae killed) (Phaedon cochleariae): 100%
efficacy (spider mites killed) (Tetranychus urticae): 90%

logP [a] = log P (HCOOH) ([1]; pH 2.7): 2.53
logP [b] = log P (neutral) ([1]; pH 7.8): 3.28
Structure (SMILES): CCc1cnccc1-c1cnc2cc(C(F)(F)F)ccc2n1 [Example I-26]
efficacy (spider mites killed) (Tetranychus urticae): 90%
efficacy (whiteflies killed) (Bemisia tabaci; 100 ppm): 96%
efficacy (planthoppers killed) (Nilaparvata lugens [2]; 100 ppm): 80%

chromatographic logP [1, 5]: 2.14
chromatographic logP [1, 6]: 2.89
Structure (SMILES): Cc1cnccc1-c1cnc2cc(C(F)(F)F)ccc2n1 [Example I-2, 2-(3-Methylpyridin-4-yl)-6-(trifluoromethyl)quinoxaline]
efficacy (laying of fertile eggs) (Boophilus microplus): 85%
efficacy (aphids killed) (Myzus persicae; 750 g/ha): 90%
efficacy (kill of aphids) (Aphis gossypii; 100 ppm): 80%
efficacy (whiteflies killed) (Bemisia tabaci; 20 ppm): 100%
efficacy (planthoppers killed) (Nilaparvata lugens [2]; 20 ppm): 100%
efficacy (kill of leafhoppers) (Nephotettix cincticeps): 100%

logP [a] = log P (HCOOH) ([1]; pH 2.7): 4.80
logP [b] = log P (neutral) ([1]; pH 7.8): 4.78
Structure (SMILES): CCSc1ccccc1-c1cnc2cc(C(F)(F)F)ccc2n1 [Example I-14]
efficacy (beetle larvae killed) (Phaedon cochleariae): 100%
efficacy (caterpillars killed) (Spodoptera frugiperda): 100%
efficacy (spider mites killed) (Tetranychus urticae): 100%

logP [a] = log P (HCOOH) ([1]; pH 2.7): 2.79
logP [b] = log P (neutral) ([1]; pH 7.8): 2.78
Structure (SMILES): CC[S+]([O-])c1ccccc1-c1cnc2cc(C(F)(F)F)ccc2n1 (stereo not drawn) [Example I-15]
efficacy (beetle larvae killed) (Phaedon cochleariae): 83%
efficacy (caterpillars killed) (Spodoptera frugiperda): 100%
efficacy (spider mites killed) (Tetranychus urticae): 100%
efficacy (whiteflies killed) (Bemisia tabaci; 100 ppm): 90%

— patent US9936700B2, “Substituted quinoxaline derivatives as pest control agent” (BAYER CROPSCIENCE AKTIENGESELLSCHAFT, priority 2013, dated 2018)
